Experiments:
[1] = Liquid; for mass density: 101.33 kPa, Pycnometric method; for vapor or sublimation pressure: Langmuir
[2] = wn = mass fraction of the nth substance listed; conditions: 98 kPa, Liquid, Capillary tube (Ostwald / Ubbelohde) method
[3] = xn = mol fraction of the nth substance listed; conditions: 98 kPa, Liquid, magnetic suspension balance, x2 = 0.55

COP(=O)([O-])OC.Cn1cc[n+](C)c1 [1,3-dimethylimidazolium dimethylphosphate]
[1]
Conditions | mass density [kg/m3]
293.2 K | 1260
303.2 K | 1253
313.2 K | 1246
323.2 K | 1239
333.2 K | 1232
343.2 K | 1225
353.2 K | 1218
363.2 K | 1211

COP(=O)([O-])OC.Cn1cc[n+](C)c1 [1,3-dimethylimidazolium dimethylphosphate] + O
kinematic viscosity [m2/s], [2]
Conditions | w2 = 0.0031 | w2 = 0.0085 | w2 = 0.019 | w2 = 0.0237 | w2 = 0.0341 | w2 = 0.0493 | w2 = 0.0587 | w2 = 0.0655
303.2 K | 0.000137 | 0.000128 | 0.000114 | 0.000107 | 9.53e-05 | 7.95e-05 | 7.22e-05 | 6.73e-05
313.2 K | 7.79e-05 | 7.35e-05 | 6.62e-05 | 6.27e-05 | 5.63e-05 | 4.77e-05 | 4.37e-05 | 4.09e-05
323.2 K | 4.84e-05 | 4.59e-05 | 4.18e-05 | 3.98e-05 | 3.6e-05 | 3.09e-05 | 2.85e-05 | 2.68e-05
333.2 K | 3.22e-05 | 3.07e-05 | 2.81e-05 | 2.69e-05 | 2.45e-05 | 2.13e-05 | 1.97e-05 | 1.86e-05
343.2 K | 2.27e-05 | 2.17e-05 | 2e-05 | 1.92e-05 | 1.75e-05 | 1.53e-05 | 1.43e-05 | 1.35e-05
353.2 K | 1.67e-05 | 1.6e-05 | 1.48e-05 | 1.42e-05 | 1.31e-05 | 1.15e-05 | 1.07e-05 | 1.02e-05
363.2 K | 1.27e-05 | 1.22e-05 | 1.17e-05 | 1.09e-05 | 1.01e-05 | 8.9e-06 | 8.5e-06 | 8e-06

CCCCn1cc[n+](C)c1.F[B-](F)(F)F [1-butyl-3-methylimidazolium tetrafluoroborate]
[1]
Conditions | vapor or sublimation pressure [kPa]
396.3 K | 7.2e-10
403.7 K | 9.9e-10
412.1 K | 2.3e-09
413.6 K | 1.8e-09
415.4 K | 2.8e-09
421.6 K | 4.3e-09
424.9 K | 6.3e-09
437.3 K | 1.9e-08
437.6 K | 1.5e-08
446.4 K | 3.7e-08
447.3 K | 4e-08
447.7 K | 3.9e-08
457.2 K | 8.3e-08
457.5 K | 8.7e-08
464.7 K | 1.5e-07
465 K | 1.7e-07
465.5 K | 1.6e-07

CCCCn1cc[n+](C)c1.F[B-](F)(F)F [1-butyl-3-methylimidazolium tetrafluoroborate] + O
kinematic viscosity [m2/s], [2]
Conditions | w2 = 0.0033 | w2 = 0.0097 | w2 = 0.0181 | w2 = 0.0258 | w2 = 0.0345 | w2 = 0.0488 | w2 = 0.0552 | w2 = 0.066
303.2 K | 5.78e-05 | 4.53e-05 | 3.44e-05 | 2.89e-05 | 2.26e-05 | 1.64e-05 | 1.52e-05 | 1.39e-05
313.2 K | 3.76e-05 | 3.02e-05 | 2.37e-05 | 2.02e-05 | 1.62e-05 | 1.2e-05 | 1.12e-05 | 1.02e-05
323.2 K | 2.59e-05 | 2.14e-05 | 1.73e-05 | 1.48e-05 | 1.22e-05 | 9.2e-06 | 8.6e-06 | 7.9e-06
333.2 K | 1.86e-05 | 1.54e-05 | 1.28e-05 | 1.13e-05 | 9.4e-06 | 7.2e-06 | 6.8e-06 | 6.2e-06
343.2 K | 1.39e-05 | 1.21e-05 | 1e-05 | 8.8e-06 | 7.5e-06 | 5.9e-06 | 5.5e-06 | 5.1e-06
353.2 K | 1.08e-05 | 9.8e-06 | 8e-06 | 7.2e-06 | 6.2e-06 | 4.9e-06 | 4.6e-06 | 4.2e-06
363.2 K | 8.6e-06 | 7.7e-06 | 6.5e-06 | 5.8e-06 | 5.1e-06 | 4.1e-06 | 3.9e-06 | 3.6e-06

CCOCCOCCOS(=O)(=O)[O-].CCn1cc[n+](C)c1 [1-ethyl-3-methylimidazolium 2-(2-ethoxyethoxy)ethylsulfate]
[1]
Conditions | mass density [kg/m3] | vapor or sublimation pressure [kPa]
293.2 K | 1215 | –
303.2 K | 1207 | –
313.2 K | 1200 | –
323.2 K | 1193 | –
333.2 K | 1185 | –
343.2 K | 1178 | –
353.2 K | 1170 | –
363.2 K | 1164 | –
419.7 K | – | 3.4e-09
429 K | – | 3.8e-09
430.1 K | – | 5.6e-09
430.7 K | – | 4.9e-09
436.4 K | – | 1.3e-08
438.3 K | – | 8.7e-09
438.4 K | – | 1.1e-08
438.5 K | – | 1.1e-08
440.2 K | – | 1.4e-08
445.7 K | – | 2.6e-08
445.8 K | – | 2.5e-08
448.1 K | – | 2.1e-08

CCOCCOCCOS(=O)(=O)[O-].CCn1cc[n+](C)c1 [1-ethyl-3-methylimidazolium 2-(2-ethoxyethoxy)ethylsulfate] + O
kinematic viscosity [m2/s], [2]
Conditions | w2 = 0.0019 | w2 = 0.0085 | w2 = 0.0195 | w2 = 0.0251 | w2 = 0.0353 | w2 = 0.0495 | w2 = 0.0569 | w2 = 0.0663
303.2 K | 0.000128 | 0.000103 | 7.64e-05 | 6.69e-05 | 5.26e-05 | 4.17e-05 | 3.84e-05 | 3.34e-05
313.2 K | 7.46e-05 | 6.17e-05 | 4.74e-05 | 4.22e-05 | 3.38e-05 | 2.73e-05 | 2.52e-05 | 2.24e-05
323.2 K | 4.76e-05 | 4.02e-05 | 3.17e-05 | 2.83e-05 | 2.31e-05 | 1.92e-05 | 1.76e-05 | 1.58e-05
333.2 K | 3.23e-05 | 2.78e-05 | 2.23e-05 | 2.02e-05 | 1.67e-05 | 1.41e-05 | 1.29e-05 | 1.18e-05
343.2 K | 2.32e-05 | 2.02e-05 | 1.65e-05 | 1.51e-05 | 1.26e-05 | 1.08e-05 | 9.8e-06 | 9.1e-06
353.2 K | 1.81e-05 | 1.53e-05 | 1.26e-05 | 1.17e-05 | 9.9e-06 | 8.5e-06 | 7.8e-06 | 7.3e-06
363.2 K | 1.34e-05 | 1.16e-05 | 1e-05 | 9.3e-06 | 7.9e-06 | 6.9e-06 | 6.3e-06 | 5.9e-06

CCOS(=O)(=O)[O-].CCn1cc[n+](C)c1 [1-ethyl-3-methylimidazolium ethyl sulfate] + O
kinematic viscosity [m2/s], [2]
Conditions | w2 = 0.0038 | w2 = 0.009 | w2 = 0.0164 | w2 = 0.0239 | w2 = 0.0359 | w2 = 0.0483 | w2 = 0.0563 | w2 = 0.066
303.2 K | 5.5e-05 | 5.06e-05 | 4.43e-05 | 4.03e-05 | 3.57e-05 | 3.26e-05 | 3.13e-05 | 2.99e-05
313.2 K | 3.74e-05 | 3.56e-05 | 3.11e-05 | 2.86e-05 | 2.51e-05 | 2.3e-05 | 2.21e-05 | 2.11e-05
323.2 K | 2.69e-05 | 2.63e-05 | 2.34e-05 | 2.17e-05 | 1.99e-05 | 1.69e-05 | 1.63e-05 | 1.55e-05
333.2 K | 2.01e-05 | 1.9e-05 | 1.8e-05 | 1.67e-05 | 1.52e-05 | 1.31e-05 | 1.24e-05 | 1.18e-05
343.2 K | 1.54e-05 | 1.49e-05 | 1.41e-05 | 1.35e-05 | 1.21e-05 | 1.05e-05 | 9.8e-06 | 9.3e-06
353.2 K | 1.21e-05 | 1.17e-05 | 1.13e-05 | 1.11e-05 | 1.01e-05 | 9e-06 | 8.1e-06 | 7.6e-06
363.2 K | 9.8e-06 | 9.4e-06 | 9.1e-06 | 8.8e-06 | 8.4e-06 | 8e-06 | 7e-06 | 6.5e-06

CCn1cc[n+](C)c1.CS(=O)(=O)[O-] [1-ethyl-3-methylimidazolium methanesulfonate]
[1]
Conditions | mass density [kg/m3]
293.2 K | 1244
303.2 K | 1237
313.2 K | 1230
323.2 K | 1223
333.2 K | 1217
343.2 K | 1212
353.2 K | 1205
363.2 K | 1198

CCn1cc[n+](C)c1.CS(=O)(=O)[O-] [1-ethyl-3-methylimidazolium methanesulfonate] + O
[3]
Conditions | binary diffusion coefficient [m2/s]
303.2 K | 2.1e-10
313.2 K | 3.1e-10
333.2 K | 5.35e-10
353.2 K | 8.3e-10
373.2 K | 1.17e-09

kinematic viscosity [m2/s], [2]
Conditions | w2 = 0.0024 | w2 = 0.0028 | w2 = 0.01 | w2 = 0.0191 | w2 = 0.0254 | w2 = 0.0323 | w2 = 0.0358 | w2 = 0.047 | w2 = 0.0589 | w2 = 0.0615
303.2 K | 9.34e-05 | 9.45e-05 | 7.58e-05 | 6.2e-05 | 5.53e-05 | 4.69e-05 | 4.51e-05 | 3.69e-05 | 3.06e-05 | 2.95e-05
313.2 K | 5.57e-05 | 5.64e-05 | 4.66e-05 | 3.91e-05 | 3.5e-05 | 3.06e-05 | 2.96e-05 | 2.48e-05 | 2.09e-05 | 2.02e-05
323.2 K | 3.74e-05 | 3.65e-05 | 3.23e-05 | 2.65e-05 | 2.39e-05 | 2.1e-05 | 2.09e-05 | 1.77e-05 | 1.49e-05 | 1.46e-05
333.2 K | 2.57e-05 | – | 2.26e-05 | – | 1.76e-05 | – | 1.53e-05 | 1.31e-05 | – | 1.11e-05
343.2 K | 1.86e-05 | – | 1.66e-05 | – | 1.32e-05 | – | 1.16e-05 | 1.01e-05 | – | 8.5e-06
353.2 K | 1.39e-05 | – | 1.24e-05 | – | 1.02e-05 | – | 9.1e-06 | 8e-06 | – | 6.8e-06
363.2 K | 1.09e-05 | – | 9.7e-06 | – | 8.1e-06 | – | 7.3e-06 | 6.5e-06 | – | 5.6e-06

— the NIST ThermoML archive (doi:10.1021/acs.jced.5b00806)
